Measured values reported in US6737383B1, “Herbicidal oxadiazolidines” (priority 1999, dated 2004).

How the values were obtained:
bedstraw = assay: Test B pre/postemergence bedstraw; format: in vivo, Galium aparine; settings: Postemergence
How it was run: (§1)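 Test chemicals in a non-phytotoxic solvent mixture with surfactant were sprayed preemergence onto planted seeds and postemergence onto plants 2 to 18 cm tall (1- to 4-leaf stage). After twelve to sixteen days in a greenhouse, injury was visually rated against untreated controls from 0 (no effect) to 10 (complete control).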

blackgrass = assay: Test B pre/postemergence blackgrass; format: in vivo, Alopecurus myosuroides
How it was run: as §1

surinam grass = assay: Test B pre/postemergence surinam grass; format: in vivo, Brachiaria decumbens
How it was run: as §1

cocklebur = assay: Test B pre/postemergence cocklebur; format: in vivo, Xanthium strumarium
How it was run: as §1

corn = assay: Test B pre/postemergence corn; format: in vivo, Zea mays
How it was run: as §1

morningglory = assay: Test B pre/postemergence morningglory; format: in vivo, Ipomoea hederacea
How it was run: as §1

pigweed = assay: Test B pre/postemergence pigweed; format: in vivo, Amaranthus retroflexus
How it was run: as §1

rape = assay: Test B pre/postemergence rape; format: in vivo, Brassica napus
How it was run: as §1

soybean = assay: Test B pre/postemergence soybean; format: in vivo, Glycine max
How it was run: as §1

sugar beet = assay: Test B pre/postemergence sugar beet; format: in vivo, Beta vulgaris
How it was run: as §1

velvetleaf = assay: Test B pre/postemergence velvetleaf; format: in vivo, Abutilon theophrasti
How it was run: as §1

wild oat = assay: Test B pre/postemergence wild oat; format: in vivo, Avena fatua
How it was run: as §1

purple nutsedge = assay: Test B pre/postemergence purple nutsedge; format: in vivo, Cyperus rotundus
How it was run: as §1

rice = assay: Test B flood test rice; format: in vivo, Oryza sativa
How it was run: (§2)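 Plants were grown to the 2-leaf stage before treatment with test chemical, then held in a greenhouse for twelve to sixteen days. Injury was visually rated against untreated controls on a 0–10 scale, where 0 is no effect and 10 is complete control.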

smallflower flatsedge = assay: Test B flood test smallflower flatsedge; format: in vivo, Cyperus difformis
How it was run: as §2

bamyardgrass = assay: Test B flood test barnyardgrass; format: in vivo, Echinochloa crus-galli
How it was run: as §2

[1] = Postemergence, Rate 62 g/ha, scale 0 to 10, 0 is no effect, 10 is complete control
[2] = Postemergence, Rate 125 g/ha, scale of 0 to 10 where 0 is no effect and 10 is complete control
[3] = Postemergence, Rate 250 g/ha, scale of 0 to 10, 0 is no effect, 10 is complete control
[4] = Postemergence, Rate 500 g/ha, scale of 0 to 10 where 0 is no effect and 10 is complete control
[5] = Preemergence, Rate 62 g/ha, scale 0 to 10 (0 no effect, 10 complete control)
[6] = Preemergence, Rate 125 g/ha, scale of 0 to 10 where 0 is no effect and 10 is complete control
[7] = Preemergence, Rate 250 g/ha, scale 0 to 10 (0 no effect, 10 complete control)
[8] = Preemergence, Rate 500 g/ha, scale of 0 to 10 where 0 is no effect and 10 is complete control
[9] = Rate 62 g/ha, flood test species, Pre-emergence, visual evaluation after twelve to sixteen days
[10] = Rate 125 g/ha, under heading Pre-emergence, flood test species, visual evaluation after twelve to sixteen days
[11] = Rate 250 g/ha, Pre-emergence (flood test species), scale 0 to 10, 0 is no effect, 10 is complete control
[12] = Rate 500 g/ha, Pre-emergence section of Table B, 0 to 10 scale (0 no effect, 10 complete control)

## CC(=O)N(C)CCn1c(=O)on(C(=O)N(c2ccc(F)cc2)C(C)C)c1=O [Compound 625]
bedstraw; Rate 62 g/ha, scale 0 to 10, 0 is no effect, 10 is complete control
  Plant response rating, Bedstraw: 0
bedstraw; Rate 125 g/ha, scale of 0 to 10 where 0 is no effect and 10 is complete control
  Plant response rating, Bedstraw: 0
blackgrass; [1]
  Plant response rating, Blackgrass: 0
blackgrass; [2]
  Plant response rating, Blackgrass: 2
blackgrass; [3]
  Blackgrass plant response rating: 7
blackgrass; [4]
  Plant response rating, Blackgrass: 7
blackgrass; [5]
  Blackgrass plant response rating: 0
blackgrass; [6]
  Blackgrass plant response rating: 3
blackgrass; [7]
  Plant response rating, Blackgrass: 7
blackgrass; [8]
  Plant response rating, Blackgrass: 9
Surinam grass; [1]
  Plant response rating, B. signalgrass: 0
Surinam grass; [2]
  Plant response rating, B. signalgrass: 0
Surinam grass; [3]
  B. signalgrass plant response rating: 2
Surinam grass; [4]
  Plant response rating, B. signalgrass: 5
Surinam grass; [5]
  B. signalgrass plant response rating: 0
Surinam grass; [6]
  B. signalgrass plant response rating: 4
Surinam grass; [7]
  Plant response rating, B. signalgrass: 8
Surinam grass; [8]
  Plant response rating, B. signalgrass: 10
cocklebur; [1]
  Plant response rating, Cocklebur: 0
cocklebur; [2]
  Plant response rating, Cocklebur: 0
cocklebur; [3]
  Cocklebur plant response rating: 0
cocklebur; [4]
  Plant response rating, Cocklebur: 0
cocklebur; [5]
  Cocklebur plant response rating: 0
cocklebur; [6]
  Cocklebur plant response rating: 0
cocklebur; [7]
  Plant response rating, Cocklebur: 0
cocklebur; [8]
  Plant response rating, Cocklebur: 0
corn; [1]
  Plant response rating, Corn: 0
corn; [2]
  Plant response rating, Corn: 0
corn; [3]
  Corn plant response rating: 0
corn; [4]
  Plant response rating, Corn: 3
corn; [5]
  Corn plant response rating: 0
corn; [6]
  Corn plant response rating: 0
corn; [7]
  Plant response rating, Corn: 0
corn; [8]
  Plant response rating, Corn: 3
morningglory; [1]
  Plant response rating, Morningglory: 0
morningglory; [2]
  Plant response rating, Morningglory: 1
morningglory; [3]
  Morningglory plant response rating: 1
morningglory; [4]
  Plant response rating, Morningglory: 2
morningglory; [5]
  Morningglory plant response rating: 0
morningglory; [6]
  Morningglory plant response rating: 0
morningglory; [7]
  Plant response rating, Morningglory: 2
morningglory; [8]
  Plant response rating, Morningglory: 3
pigweed; [1]
  Plant response rating, Redroot pigweed: 0
pigweed; [2]
  Plant response rating, Redroot pigweed: 0
pigweed; [3]
  Redroot pigweed plant response rating: 0
pigweed; [5]
  Redroot pigweed plant response rating: 0
pigweed; [6]
  Redroot pigweed plant response rating: 0
pigweed; [7]
  Plant response rating, Redroot pigweed: 4
pigweed; [8]
  Plant response rating, Redroot pigweed: 8
rape; [1]
  Plant response rating, Rape: 0
rape; [2]
  Plant response rating, Rape: 0
rape; [3]
  Rape plant response rating: 0
rape; [4]
  Plant response rating, Rape: 0
rape; [5]
  Rape plant response rating: 0
rape; [6]
  Rape plant response rating: 0
rape; [8]
  Plant response rating, Rape: 4
soybean; [1]
  Plant response rating, Soybean: 0
soybean; [2]
  Plant response rating, Soybean: 2
soybean; [3]
  Soybean plant response rating: 3
soybean; [5]
  Soybean plant response rating: 0
soybean; [6]
  Soybean plant response rating: 0
soybean; [7]
  Plant response rating, Soybean: 0
soybean; [8]
  Plant response rating, Soybean: 0
Sugar beet; [1]
  Plant response rating, Sugarbeets: 0
Sugar beet; [2]
  Plant response rating, Sugarbeets: 0
Sugar beet; [3]
  Sugarbeets plant response rating: 0
Sugar beet; [5]
  Sugarbeets plant response rating: 0
Sugar beet; [6]
  Sugarbeets plant response rating: 0
Sugar beet; [7]
  Plant response rating, Sugarbeets: 0
Sugar beet; [8]
  Plant response rating, Sugarbeets: 0
velvetleaf; [1]
  Plant response rating, Velvetleaf: 0
velvetleaf; [2]
  Plant response rating, Velvetleaf: 0
velvetleaf; [3]
  Velvetleaf plant response rating: 0
velvetleaf; [5]
  Velvetleaf plant response rating: 0
velvetleaf; [6]
  Velvetleaf plant response rating: 0
velvetleaf; [7]
  Plant response rating, Velvetleaf: 1
velvetleaf; [8]
  Plant response rating, Velvetleaf: 6
Wild oat; [1]
  Plant response rating, Wild oats: 0
Wild oat; [2]
  Plant response rating, Wild oats: 0
Wild oat; [3]
  Wild oats plant response rating: 0
Wild oat; [5]
  Wild oats plant response rating: 0
Wild oat; [6]
  Wild oats plant response rating: 0
Wild oat; [7]
  Plant response rating, Wild oats: 3
Wild oat; [8]
  Plant response rating, Wild oats: 5
Purple nutsedge; [1]
  Plant response rating, Nutsedge: 0
Purple nutsedge; [2]
  Plant response rating, Nutsedge: 0
Purple nutsedge; [3]
  Nutsedge plant response rating: 0
Purple nutsedge; [5]
  Nutsedge plant response rating: 0
Purple nutsedge; [6]
  Nutsedge plant response rating: 0
Purple nutsedge; [7]
  Plant response rating, Nutsedge: 0
Purple nutsedge; [8]
  Plant response rating, Nutsedge: 0
rice; [9]
  Plant response rating, Rice (0 to 10 scale, 0 is no effect, 10 is complete control): 0
rice; [10]
  Rice plant response rating (0 to 10 scale, 0 is no effect, 10 is complete control): 0
rice; [11]
  Rice plant response rating: 0
rice; [12]
  Rice plant response rating: 0
Smallflower flatsedge; [9]
  Plant response rating, S. Flatsedge (0 to 10 scale, 0 is no effect, 10 is complete control): 0
Smallflower flatsedge; [10]
  S. Flatsedge plant response rating (0 to 10 scale, 0 is no effect, 10 is complete control): 0
Smallflower flatsedge; [11]
  S. Flatsedge plant response rating: 0
Smallflower flatsedge; [12]
  S. Flatsedge plant response rating: 0
bamyardgrass; [9]
  Plant response rating, Barnyardgrass (0 to 10 scale, 0 is no effect, 10 is complete control): 0
bamyardgrass; [10]
  Barnyardgrass plant response rating (0 to 10 scale, 0 is no effect, 10 is complete control): 0
bamyardgrass; [11]
  Barnyardgrass plant response rating: 0
bamyardgrass; [12]
  Barnyardgrass plant response rating: 0
